Measurements reported in US4374138A, “Antibacterial amide compounds, compositions, and methods of use” (Warner-Lambert Company, priority 1981, dated 1983).
In brackets after ≈: the same amount, converted by molar mass.

Key:
Type in all cases: cell-based
[1] = test system: Pseudo. Aeru BRK; assay: Minimal Inhibitory Concentration, Pseudo. Aeru BRK
[2] = test system: Pseudo. Aeru 28; assay: Minimal Inhibitory Concentration, Pseudo. Aeru 28
[3] = test system: Pseudo. Aeru UI-18; assay: Minimal Inhibitory Concentration, Pseudo. Aeru UI-18
[4] = test system: Staph Aureus UC-76; assay: Minimal Inhibitory Concentration, Staph Aureus UC-76; conditions: Staphylococcus aureus, UC76
[5] = test system: E. Coli Vogel; assay: Minimal Inhibitory Concentration, E. Coli Vogel; conditions: Escherichia coli
[6] = test system: Klebs. Pneu. MGH-2; assay: Minimal Inhibitory Concentration, Klebs. Pneu. MGH-2
[7] = test system: Serr. Mar. IMM-16; assay: Minimal Inhibitory Concentration, Serr. Mar. IMM-16
[8] = test system: Entero C. IMM-11; assay: Minimal Inhibitory Concentration, Entero C. IMM-11
[9] = test system: E. Coli Brig; assay: Minimal Inhibitory Concentration, E. Coli Brig; conditions: Escherichia coli
[10] = test system: Prot. Vulg. 1810; assay: Minimal Inhibitory Concentration, Prot. Vulg. 1810

Row | MIC [1] [µg/mL] | MIC [2] [µg/mL] | MIC [3] [µg/mL] | MIC [4] [µg/mL] | MIC [5] [µg/mL] | MIC [6] [µg/mL] | MIC [7] [µg/mL] | MIC [8] [µg/mL] | MIC [9] [µg/mL] | MIC [10] [µg/mL] | SMILES
1 | 3.1 (≈ 4.55 µM) | 3.1 (≈ 4.55 µM) | 3.1 (≈ 4.55 µM) | 1.6 (≈ 2.35 µM) | 6.3 (≈ 9.26 µM) | 12.5 (≈ 18.4 µM) | 12.5 (≈ 18.4 µM) | 12.5 (≈ 18.4 µM) | 12.5 (≈ 18.4 µM) | 6.3 (≈ 9.26 µM) | CCOC(=O)CNC(=O)Nc1ccc2[nH]c(=O)c(C(=O)N[C@@H](C(=O)N[C@@H]3C(=O)N4[C@@H]3SC(C)(C)[C@@H]4C(=O)O)c3ccc(O)cc3)cc2c1
2 | 1.6 (≈ 2.57 µM) | 0.4 (≈ 0.642 µM) | 1.6 (≈ 2.57 µM) | 0.4 (≈ 0.642 µM) | 1.6 (≈ 2.57 µM) | 6.3 (≈ 10.1 µM) | 6.3 (≈ 10.1 µM) | 3.1 (≈ 4.98 µM) | 3.1 (≈ 4.98 µM) | 1.6 (≈ 2.57 µM) | CCNC(=O)Nc1ccc2[nH]c(=O)c(C(=O)N[C@@H](C(=O)N[C@@H]3C(=O)N4[C@@H]3SC(C)(C)[C@@H]4C(=O)O)c3ccc(O)cc3)cc2c1 [A CH3 CH2, N-[6-[[(Ethylamino)carbonyl]amino]-1,2-dihydro-2-oxo-3-quinolinylcarbonyl]amoxicillin]
3 | 0.4 (≈ 0.642 µM) | 0.8 (≈ 1.28 µM) | 3.1 (≈ 4.98 µM) | 0.8 (≈ 1.28 µM) | 0.4 (≈ 0.642 µM) | 3.1 (≈ 4.98 µM) | 1.6 (≈ 2.57 µM) | 3.1 (≈ 4.98 µM) | 6.3 (≈ 10.1 µM) | 0.8 (≈ 1.28 µM) | CCNC(=O)Nc1ccc2[nH]cc(C(=O)N[C@@H](C(=O)N[C@@H]3C(=O)N4[C@@H]3SC(C)(C)[C@@H]4C(=O)O)c3ccc(O)cc3)c(=O)c2c1 [B CH3 CH2, N-[6-[[(Ethylamino)carbonyl]amino]-1,4-dihydro-4-oxo-3-quinolinylcarbonyl]amoxicillin]
4 | 1.6 (≈ 2.35 µM) | 1.6 (≈ 2.35 µM) | 1.6 (≈ 2.35 µM) | 0.8 (≈ 1.18 µM) | 1.6 (≈ 2.35 µM) | 12.5 (≈ 18.4 µM) | 12.5 (≈ 18.4 µM) | 3.1 (≈ 4.56 µM) | 6.3 (≈ 9.27 µM) | 1.6 (≈ 2.35 µM) | CCNC(=O)CNC(=O)Nc1ccc2[nH]c(=O)c(C(=O)N[C@@H](C(=O)N[C@@H]3C(=O)N4[C@@H]3SC(C)(C)[C@@H]4C(=O)O)c3ccc(O)cc3)cc2c1
5 | 0.8 (≈ 1.23 µM) | 0.8 (≈ 1.23 µM) | 1.6 (≈ 2.46 µM) | 0.8 (≈ 1.23 µM) | 1.6 (≈ 2.46 µM) | 12.5 (≈ 19.2 µM) | 12.5 (≈ 19.2 µM) | 6.3 (≈ 9.67 µM) | 6.3 (≈ 9.67 µM) | 1.6 (≈ 2.46 µM) | CC1(C)S[C@@H]2[C@H](NC(=O)[C@H](NC(=O)c3cc4cc(NC(=O)NCC(N)=O)ccc4[nH]c3=O)c3ccc(O)cc3)C(=O)N2[C@H]1C(=O)O
